From US11407819B2, “Compositions and use of a fibrinogen binding motif present in EFB and COA for therapeutics and vaccines against Staphylococcus aureus” (priority 2013, dated 2022)
“Also recorded” adds a separate entry of the source.

Columns and labels:
rEfb-N binding to Fg = molecular target: T1, rEfb-N binding to Fg (Homo sapiens, UniProt P02671+P02675+P02679); assay: Competition ELISA, peptide inhibition of rEfb-N (Efb 30-104) binding to Fg; settings: increasing concentration of peptides; 2 nM GST fusion protein
T1 construct: full-length human Fibrinogen (diluted in PBS, Enzyme research); purchased Enzyme research; host or cells: Efb probe made in E. coli
T1 sequence (P02671 20-629 limits assumed): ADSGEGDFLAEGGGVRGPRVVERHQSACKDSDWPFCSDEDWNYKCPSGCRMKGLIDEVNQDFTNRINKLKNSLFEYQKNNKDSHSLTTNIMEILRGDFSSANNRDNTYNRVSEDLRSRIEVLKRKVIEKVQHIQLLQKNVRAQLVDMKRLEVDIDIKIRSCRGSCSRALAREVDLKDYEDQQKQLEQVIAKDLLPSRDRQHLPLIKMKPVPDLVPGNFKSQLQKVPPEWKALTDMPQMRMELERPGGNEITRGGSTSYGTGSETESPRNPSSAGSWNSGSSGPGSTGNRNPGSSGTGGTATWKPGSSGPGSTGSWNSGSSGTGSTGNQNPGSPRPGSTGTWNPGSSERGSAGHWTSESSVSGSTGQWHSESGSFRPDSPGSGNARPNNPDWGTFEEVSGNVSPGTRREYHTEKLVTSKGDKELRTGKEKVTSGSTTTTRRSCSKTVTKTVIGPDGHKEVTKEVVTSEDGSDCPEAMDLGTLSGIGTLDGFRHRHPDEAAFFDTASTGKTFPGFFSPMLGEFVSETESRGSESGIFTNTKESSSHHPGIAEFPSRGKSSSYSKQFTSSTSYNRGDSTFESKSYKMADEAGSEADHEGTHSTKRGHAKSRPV
T1 sequence (P02675 31-491): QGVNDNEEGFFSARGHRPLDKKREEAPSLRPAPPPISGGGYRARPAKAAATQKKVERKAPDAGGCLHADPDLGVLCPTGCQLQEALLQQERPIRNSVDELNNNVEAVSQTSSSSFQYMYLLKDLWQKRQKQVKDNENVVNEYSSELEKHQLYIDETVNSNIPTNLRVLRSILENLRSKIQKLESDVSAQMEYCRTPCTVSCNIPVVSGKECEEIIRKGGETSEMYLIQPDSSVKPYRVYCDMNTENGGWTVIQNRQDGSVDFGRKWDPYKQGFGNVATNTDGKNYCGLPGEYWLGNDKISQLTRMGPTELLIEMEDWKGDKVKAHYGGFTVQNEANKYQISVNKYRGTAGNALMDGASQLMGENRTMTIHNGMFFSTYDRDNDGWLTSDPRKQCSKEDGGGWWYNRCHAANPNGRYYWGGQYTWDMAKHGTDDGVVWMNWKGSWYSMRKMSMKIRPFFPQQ
T1 sequence (P02679 27-453): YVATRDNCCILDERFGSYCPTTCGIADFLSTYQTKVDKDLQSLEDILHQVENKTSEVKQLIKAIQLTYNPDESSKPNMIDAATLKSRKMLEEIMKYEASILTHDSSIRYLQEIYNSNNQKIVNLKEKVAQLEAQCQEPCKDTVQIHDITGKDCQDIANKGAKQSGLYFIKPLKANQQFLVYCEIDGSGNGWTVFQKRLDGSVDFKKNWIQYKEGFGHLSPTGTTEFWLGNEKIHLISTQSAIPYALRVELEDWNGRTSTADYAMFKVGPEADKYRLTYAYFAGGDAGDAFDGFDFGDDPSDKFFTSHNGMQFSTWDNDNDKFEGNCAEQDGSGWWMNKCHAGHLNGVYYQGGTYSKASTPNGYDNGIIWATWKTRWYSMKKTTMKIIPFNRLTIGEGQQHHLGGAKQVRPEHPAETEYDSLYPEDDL
From the text: Coa-F contains an Efb like fibrinogen binding motif. FIG. 11A is an image of a ClustalW alignment of amino acid sequence from Efb-O (Efb 68-98) and Coa from Newman strain (col-Newman). Sequence similarity was identified at Coa 474-505. Bold letters denote conserved residues and underlined letters represent similar residues. FIGS. 11B and 11C show a comparison of amino acid sequence of Efb-O with Coa 474-505 (FIG. 11B) and Coa 506-532 (FIG. 11C). Large letters in Efb-O indicate the residues important for Fg binding. The red letters show the identical residues and the yellow letters indicate the similar residues. […] Increasing concentration of Coa peptides was incubated with 2 nM GST fusion proteins in Fg-coated microtiter wells. Closed square, sCoa-O; closed circle, sCoa-RI; closed triangle, sEfb-O.
A peptide was synthesized that corresponds to the Coa-O sequence (sCoa-O) and determined its Fg binding activity in a competition ELISA. Microtiter wells were coated with Fg and binding of the recombinant N-terminal segment of Efb (rEfb-N), that harbors the two Fg binding sites, was quantitated in the presence of increasing concentration of different synthetic peptides.
In the case of peptide inhibition assay, various concentration of Efb or Coa peptides were mixed with a fixed concentration of Coa-GST or Efb-GST fusion proteins (5-10 nM) in TBS and the bound GST fusion proteins were detected through incubation with HRP-conjugated rabbit anti-GST polyclonal antibodies (5000× dilution). All proteins were diluted in TBS containing 1% BSA and 0.05% TWEEN® 20 and the ELISA assays were carried out at room temperature.

THP-1 cells = assay: THP-1 cell adherence to immobilized Fg; format: cell-based; settings: for inhibition of THP-1 adherence to immobilized Fg: M1/70 20 μg/ml, rEfb 0.2 μM, rCoa 0.5 μM, peptides 0.5 μM each
Protocol: Cell adherence assay using cell lines—A monocytic cell line THP-1 cell stably expressing αMβ2 was maintained in RPMI1640 supplemented with 10% fetal bovine serum, […] L-glutamine, 100 units/ml penicillin and 100 μg/ml streptomycin. Prior to use, cells were harvested by centrifuge, washed and suspended in RPMI 1640/1% human serum albumin. For cell adherence assays, 48-well plates were coated with 200 μl of Fibrinogen (10 μg/ml) overnight at 4° C. followed by 1 hour at 37° C. before blocking with 1% Polyvinylpyrrolidone (PVP 3600 kDa) for 45 minutes at 37° C. Subsequently, the cells were seeded 2×10^5/well in the presence or absence of Coa or Efb recombinant proteins or peptides and incubated at 37° C. for 25 minutes. Non-adherent cells were removed by washing gently three times with PBS/1% BSA. Adherent cells were quantitated with CyQuant kit according to the manufacturer's manual.

| Substance | inhibition of rEfb-N binding to Fg (rEfb-N binding to Fg) | inhibition of THP-1 adherence to immobilized Fg (THP-1 cells) | reversal of inhibition of THP-1 adherence elicited by rEfb or rCoa (THP-1 cells; peptide 50 μM preincubated with rEfb (0.2 μM) or rCoa (0.2 μM)) |
| --- | --- | --- | --- |
| sCoa-RI: synthetic peptide, first 27 residues of repeat region, Coa 506-532 (ETNAYNVTTHANGQVSYGARPTYKKPS) | effectively inhibited rEfb-N binding to Fg; also recorded: somewhat more effective inhibitor than sCoa-O | did not inhibit THP-1 adherence |  |
| sEfb-O: synthetic peptide mimicking the high affinity Fg-binding motif in Efb (Efb 68-98) (KYIKFKHDYNILEFNDGTFEYGARPQFN) | potently inhibited rEfb-N binding to the Fg surface; also recorded: effectively inhibited rEfb-N binding to Fg | did not inhibit THP-1 adherence | reverses the inhibitory activities |
